Patent US20040087561A1, “Treatment of sexual dysfunction” (priority 2000, published 2004)

How the values were obtained:
[1] = molecular target: T1, human NMB receptor (BB1) (Homo sapiens, UniProt P28336); test: BB1 binding assay ([125I][Tyr4]bombesin, CHO-K1 cell membranes)
T1 construct: expressed in transfected cells; host or cells: CHO-K1
Experimental: (§1) In the following experiments, measurement of BB1 and BB2 binding was as follows. CHO-K1 cells stably expressing cloned human NMB (for (BB1 assay) and GRP receptors (for BB2 assay) were routinely grown in Ham's F12 culture medium supplemented with 10% foetal calf serum and 2 mM glutamine. For binding experiments, cells were harvested by trypsinization, and stored frozen at −70° C. in Ham's F12 culture medium containing 5% DMSO until required. On the day of use, cells were thawed rapidly, diluted with an excess of culture medium, and centrifuged for 5 minutes at 2000 g. Cells were resuspended in 50 mM Tris-HCl assay buffer (pH 7.4 at 21° C., containing 0.02% BSA, 40 μg/mL bacitracin, 2 μg/mL chymostatin, 4 μg/mL leupeptin, and 2 μM phosphoramidon), counted, and polytronned (setting 5, 10 sec) before centrifuging for 10 minutes at 28,000 g. The final pellet was resuspended in assay buffer to a final cell concentration of 1.5×10^5/mL. For binding assays, 200 μL aliquots of membranes were incubated with [^125I][Tyr^4]bombesin (<0.1 nM) in the presence and absence of test compounds (final assay volume 250 μL) for 60 minutes and 90 minutes for NMB and GRP receptors, respectively. Nonspecific binding was defined by 1 μM bombesin. Assays were terminated by rapid filtration under vacuum onto Whatman GF/C filters presoaked in 0.2% PEI for >2 hours, and washed 50 mM Tris-HC (pH 6.9 at 21° C.; 6×1 mL). Radioactivity bound was determined using a gamma counter.
(§2) All competition data was analysed using nonlinear regression utilizing iterative curve-plotting procedures in Prism® (GraphPad Software Inc., San Diego, USA). IC50 values were corrected to Ki values using the Cheng-Prusoff equation (Cheng Y., PrusoffW. H., Biochem. Pharmacol. 22: 3099-3108, 1973).

[2] = molecular target: T2, human GRP receptor (BB2) (Homo sapiens, UniProt P30550); test: BB2 binding assay ([125I][Tyr4]bombesin, CHO-K1 cell membranes)
T2 construct: expressed in transfected cells; host or cells: CHO-K1
T2 sequence (P30550 whole entry): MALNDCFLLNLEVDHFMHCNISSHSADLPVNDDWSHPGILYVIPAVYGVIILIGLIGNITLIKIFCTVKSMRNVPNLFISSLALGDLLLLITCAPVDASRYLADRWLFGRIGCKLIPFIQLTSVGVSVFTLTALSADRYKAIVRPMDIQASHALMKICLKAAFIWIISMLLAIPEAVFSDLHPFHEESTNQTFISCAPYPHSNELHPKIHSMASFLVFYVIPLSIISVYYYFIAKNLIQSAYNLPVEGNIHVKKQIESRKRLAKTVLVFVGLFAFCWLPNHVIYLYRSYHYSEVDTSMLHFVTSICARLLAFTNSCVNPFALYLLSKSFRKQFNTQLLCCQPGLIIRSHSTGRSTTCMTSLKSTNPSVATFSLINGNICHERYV
Experimental: as §1, §2

[3] = test system: Female New Zealand rabbits; test: Pelvic nerve-stimulated female genital blood flow, anaesthetised rabbit model of sexual arousal; assay type: in vivo; details: 15 mg/kg sc
Experimental: (§3) Female New Zealand rabbits (2.5 kg) were pre-medicated with a combination of Medetomidine (Domitor®) 0.5 ml/kg im., and Ketamine (Vetalar®) 0.25 ml/kg i.m. whilst maintaining oxygen intake via a face mask. The rabbits were tracheotomised using a Portex™ uncuffed endotracheal tube 3 ID., connected to ventilator and maintained at a ventilation rate of 30-40 breaths per minute, with an approximate tidal volume of 18-20 ml, and a maximum airway pressure of 10 cm H2O. Anaesthesia was then switched to Isoflurane and ventilation continued with O2 at 2 l/min. The right marginal ear vein was cannulated using a 23G or 24G catheter, and Lactated Ringer solution perfused at 0.5 ml/min. The rabbit was maintained at 3% Isoflurane during invasive surgery, dropping to 2% for maintenance anaesthesia.
The left groin area of the rabbit was shaved and a vertical incision was made approximately 5 cm in length along the thigh. […] Systolic and diastolic pressures were measured, and the mean arterial pressure calculated using the formula (diastolic ×2+systolic)÷3. Heart rate was measured via the pulse oxymeter and Po-ne-mah data acquisition software system (Ponemah Physiology Platform, Gould Instrument Systems Inc). […] A frequency response curve was determined at the start of each experiment in order to determine the optimum frequency to use as a sub-maximal response, normally 4 Hz. […]

[4] = test system: conscious male rat; test: Penile intracavernosal pressure in the conscious male rat (telemetry); assay type: in vivo
Experimental: In addition to treating women with FSD, bombesin antagonists will be useful in treating male erectile dysfunction (MED. Both the non-selective BB1/2 antagonists (Compound 1; 10 mg/kg sc) and the selective BB I receptor antagonist (Compound 3; 15 mg/kg sc) is pro-erectile in a conscious rat model of penile erection (FIGS. 24 and 25). Erectile responses were recorded by measuring intracavemosal pressure using surgically implanted telemetric device. The specific details the surgical procedures, data acquisition and analysis can be found in detail in Bernabe 1999.
Compound 1 and compound 3 were dissolved in 50% O-cyclodextrin in saline. They were administered at a dose of 15 mg/kg subcutaneously (sc). […] These increases equate to penile erection. Both Compounds 1 and 3 induced a number of erections in a similar manner to those observed with apomorphine or melanotan-II—both of which are clinically proven agents that are effective in the treatment of MED. Moreover the amplitude of the increases observed were similar to those observed with apomorphine or melanotan-II. The mechanism of action is thought to be similar to the effects on female genital flow ie CNS potentiation of the descending neuronal pathways that control penile erection.

[5] = test system: Male New Zealand rabbits; test: Pelvic nerve-stimulated penile intracavernosal pressure, anaesthetised rabbit model of erection; assay type: in vivo; details: Compound 3 (10 mg/kg sc) concomitant with selective PDE5 inhibitor (1 mg/kg iv), compared with same dose of Compound 3 alone
Experimental: as §3, with “Male” for “Female”, “(˜2.5” for “(2.5”, “i.m.,” for “im.,”, “anaesthesia. The left jugular vein was exposed, isolated and then cannulated with a PVC catheter (17G) for the infusion of drugs and compounds.” for “anaesthesia.”
The left groin area of the rabbit was shaved and a vertical incision was made approximately 5 cm in length along the thigh. […] Systolic and diastolic pressures were measured, and the mean arterial pressure calculated using the formula (diastolic ×2+systolic)[…]. Heart rate was measured via the pulse oxymeter and Po-ne-mah data acquisition software system (Ponemah Physiology Platform, Gould Instrument Systems Inc). […]

T1 sequence (P28336 whole entry): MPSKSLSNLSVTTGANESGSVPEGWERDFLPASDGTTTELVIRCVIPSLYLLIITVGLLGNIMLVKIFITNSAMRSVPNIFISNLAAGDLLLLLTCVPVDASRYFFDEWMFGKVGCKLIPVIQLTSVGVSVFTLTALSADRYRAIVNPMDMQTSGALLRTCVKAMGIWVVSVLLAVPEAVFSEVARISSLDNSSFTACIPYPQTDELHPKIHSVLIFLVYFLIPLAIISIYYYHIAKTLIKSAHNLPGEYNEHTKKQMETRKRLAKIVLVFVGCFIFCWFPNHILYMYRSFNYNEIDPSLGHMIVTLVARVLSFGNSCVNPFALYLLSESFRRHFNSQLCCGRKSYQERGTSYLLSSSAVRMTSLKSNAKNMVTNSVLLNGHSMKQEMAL

Structure (SMILES): C[C@@](Cc1c[nH]c2ccccc12)(NS(=O)(=O)c1cccc(C(F)(F)F)c1)C(=O)NCC1(c2ccccn2)CCCCC1 [Example 124]
- IC50 [1]: 440 nM
- IC50 [2]: 2250 nM

Structure (SMILES): C[C@@](Cc1c[nH]c2ccccc12)(NS(=O)(=O)c1cccc([N+](=O)[O-])c1)C(=O)NCC1(c2ccccn2)CCCCC1 [Example 121]
- IC50 [1]: 208 nM
- IC50 [2]: 1960 nM

Structure (SMILES): C[C@@](Cc1c[nH]c2ccccc12)(NS(=O)(=O)c1ccc(F)c(Cl)c1)C(=O)NCC1(c2ccccn2)CCCCC1 [Example 156]
- IC50 [1]: 284 nM
- IC50 [2]: 1220 nM

Structure (SMILES): C[C@@](Cc1c[nH]c2ccccc12)(NC(=O)Nc1ccc([N+](=O)[O-])cc1)C(=O)NCC1(c2ccc(N)cc2)CCCCC1 [Compound 3, (2S)-N-{[1-(4-aminophenyl)cyclohexyl]methyl}-3-(1H-indol-3-yl)-2-methyl-2-{[(4-nitroanilino)carbonyl]amino}propanamide]
- pelvic-nerve stimulated (PNS) increases in genital (vaginal and clitoral) blood flow [3]: potent enhancer
- penile erection (erectile response) ([4]; Compound 1 10 mg/kg sc, Compound 3 15 mg/kg sc, conscious rat model): pro-erectile
- intracavernosal pressure ([4]; one hour after 10 mg/kg sc Compound 1, 45 minutes after 15 mg/kg sc compound 3, conscious rat): significant increases in intracavernosal pressure
- pelvic nerve-stimulated intracavernosal pressure (ICP), combination with PDE5 inhibitor [5]: marked enhancement
